Data from US9416353B2, “Covalent tethering of functional groups to proteins and substrates therefor” (Promega Corporation, priority 2004, dated 2016).

Tests used:
[1] = target: hR.Luc-connector-DhaA.H272F-Flag (UniProt P0A3G2+P27652, H272F/T2A); assay type: cell-based; settings: Western blot, anti-R.Luc antibody
[2] = target: R.Luc-connector-DhaA.H272F (UniProt P0A3G2+P27652, H272F/T2A); assay type: binding; settings: pretreatment with non-biotinylated substrate

Row | Molecule | hR.Luc-connector-DhaA.H272F-Flag fusion protein captured [1] | decrease of the efficiency of capturing [2]
1 | O=C(CCCC[C@@H]1SC[C@@H]2NC(=O)N[C@@H]21)NCCOCCOCCCCCCCl [biotin-C10H21NO2—Cl, N-{2-[2-(6-Chlorohexyloxy)-ethoxy]ethyl}-biotin-amide] | more than 50% | –
2 | N-{2-[2-(6-Chlorohexyloxy)-ethoxy]-ethyl}-tetramethylrhodamine-5-(and -6)-amide | – | about 80%
